In patent US5401490A, “Markers of tissue hypoxia” (priority 1989, dated 1995):
Read-outs that look alike come from different tables or passages of the source.

Columns and labels:
[1] = Tissue distribution of radioactivity after intravenous injection; assay type: in vivo, BALB/C mice; conditions: mouse, iv, i.v.; for tissue uptake at 0.5 h: 0.50 h
Excerpt: Tables 1 and 2 show the percent of injected IAZG and IAZA respectively per gram of wet tissue for selected tissues excised from BALB/C mice bearing EMT-6 tumors. This tumor model is known to have a high hypoxic fraction (0.33) (16). […] Hepatobiliary excretion may play a role in blood clearance as evidenced by elevated liver radioactivity and the appearance of activity in the intestine. Some oxidative or reductive metabolites of the 2-nitroimidazoles may also become bound to liver tissue, as was postulated in an in vivo study with ^14 C-MISO (6). This supposition is supported by the persistence of liver radioactivity at longer time periods. […] At 8 and 24 hours thyroid levels of IAZG are 7.2 and 30.9% of the total body activity and for IAZA they are 7.9 and 33.8% of total body activity. EXAMPLE 11 TISSUE DISTRIBUTION AND EXCRETION Tumor propagation of EMT-6 tumors in BALB/C mice was accomplished by subcutaneous injection of a cell suspension (10^5 cells in 0.1 mL) as described previously (10). Tumors reached about 10 mm in diameter (≈0.5 g) at 12 to 14 days, at which time each animal was given a bolus intravenous injection of ^125 I-labelled test drug via the tail vein (40 to 60 kBq in 0.1 mL). At set time periods the animals were asphyxiated with CO2 and exsanguinated via cardiac puncture. Tissues were dissected, weighed wet into vials and counted for ^125 I-activity. Whole-body activity was determined by summation of total activity in tissues and in residual carcass, and blood activity was determined from the blood aliquot, assuming blood to be 6.5% of the total body weight. EXAMPLE 12 Male BALB/c mice (20-25 g) were inoculated subcutaneously in the left flank with a suspension of murine EMT-6 cells (10^5 cells in 0.1 mL) (14). After 12 to 14 days, when the tumors reached the desired size (8-10 mm diameter), each mouse received a single intravenous (iv) injection of ^125 I-IAZA (59 kBq in 0.1 mL). […] Heart, lung, liver, spleen, muscle, bone, thyroid, kidney, stomach, small intestine, tail, tumor and skin were removed upon necropsy, weighed and analyzed for ^125 I using a Beckman Model 8000 gamma scintillation counter. The remaining carcass mass was also weighed and radioassayed.

EMT-6 cells [2] = assay: Hypoxic cell radiosensitizing ability (post-irradiation survival); assay type: cell-based, mouse
Procedure: Cell cultures were examined under oxic (air) and hypoxic incubation, with various concentrations of test drug, and at several doses of radiation.

EMT-6 cells [3] = assay: Cell uptake / binding to the acid insoluble (macromolecular) fraction of EMT-6 cells; assay type: cell-based, mouse
Procedure: The binding of IAZG to the acid precipitable fraction of EMT-6 cells in vitro is dependent on the degree of hypoxia as shown in FIG. 4. […] To assess the relative efficiency of uptake of the test compounds, the initial binding rate in terms of pmol/10^6 cells/h was determined at several different concentrations. […] This is the highest binding rate measured to date for any 2-nitroimidazole derivative and is 4 to 8 times greater than MISO.
Initial binding rates were measured (FIG. 8) at four concentrations of IAZA (3, 10, 30 and 100 μM), using normally oxygenated and hypoxic EMT-6 cell cultures as described previously (13). Similar studies at the same concentration of misonidazole were used as controls.
EXAMPLE 8 CELL UPTAKE STUDIES
The uptake of test drugs into EMT-6 cell suspensions, under oxic and hypoxic conditions, was determined as described previously (18, 13). The data were analyzed in terms of drug binding to the macromolecular fraction at various times and at various test drug concentrations (FIG. 4). The initial binding rate, in units of pmol/10^6 cells per hour for each drug, was determined from the binding data (FIG. 5).

[4] = Long term storage in solution; assay type: physicochemical
Excerpt: Both IAZA and IAZG are synthesised, in high yield, from commercial precursors (FIG. 1) and undergo high-yield isotope exchange reactions with radioiodine to produce the required radiolabelled test compounds. […] Therefore, the compounds were stored as a dry residue in multidose vials under refrigeration and were reconstituted with the appropriate solvent just prior to use. IAZP is similarly synthesised. It will be known to those skilled in the art that other radio halogens may be similarly employed in the exchange reaction.

[5] = blood, read-out: Percent of Injected Dose per Gram, Blood
[6] = intestine, read-out: Percent of Injected Dose per Gram, Intestine
[7] = kidney, read-out: Percent of Injected Dose per Gram, Kidney
[8] = liver, read-out: Percent of Injected Dose per Gram, Liver
[9] = lung, read-out: Percent of Injected Dose per Gram, Lung
[10] = muscle, read-out: Percent of Injected Dose per Gram, Muscle
[11] = stomach, read-out: Percent of Injected Dose per Gram, Stomach
[12] = tumor, read-out: Percent of Injected Dose per Gram, Tumor

## O=[N+]([O-])c1nccn1[C@@H]1O[C@H](CI)[C@H](O)[C@H](O)[C@H]1O [IAZG, 1-(6-iodo-6-deoxy-β-D-galactopyranosyl)-2-nitroimidazole]
[1]; [5]
  tissue uptake at 0.25 h: 1.83 ± 0.17 %ID/g
  tissue uptake at 0.5 h: 1.11 ± 0.16 %ID/g
  tissue uptake at 1 h: 0.86 ± 0.26 %ID/g
  tissue uptake at 2 h: 0.53 ± 0.1 %ID/g
  tissue uptake at 4 h: 0.28 ± 0.07 %ID/g
  tissue uptake at 8 h: 0.16 ± 0.03 %ID/g
  tissue uptake at 24 h: 0.06 ± 0.02 %ID/g
[1]; [6]
  tissue uptake at 0.25 h: 6.82 ± 5.2 %ID/g
  tissue uptake at 0.5 h: 3.65 ± 1.36 %ID/g
  tissue uptake at 1 h: 1.16 ± 0.25 %ID/g
  tissue uptake at 2 h: 0.82 ± 0.45 %ID/g
  tissue uptake at 4 h: 0.29 ± 0.07 %ID/g
  tissue uptake at 8 h: 0.17 ± 0.08 %ID/g
  tissue uptake at 24 h: 0.05 ± 0.02 %ID/g
[1]; [7]
  tissue uptake at 0.25 h: 15.6 ± 1.15 %ID/g
  tissue uptake at 0.5 h: 8.94 ± 1.2 %ID/g
  tissue uptake at 1 h: 4.56 ± 1.41 %ID/g
  tissue uptake at 2 h: 2.67 ± 0.51 %ID/g
  tissue uptake at 4 h: 1.1 ± 0.29 %ID/g
  tissue uptake at 8 h: 0.4 ± 0.02 %ID/g
  tissue uptake at 24 h: 0.09 ± 0.03 %ID/g
[1]; [8]
  tissue uptake at 0.25 h: 5.5 ± 0.79 %ID/g
  tissue uptake at 0.5 h: 2.96 ± 0.49 %ID/g
  tissue uptake at 1 h: 1.48 ± 0.24 %ID/g
  tissue uptake at 2 h: 1.4 ± 0.56 %ID/g
  tissue uptake at 4 h: 0.43 ± 0.12 %ID/g
  tissue uptake at 8 h: 0.2 ± 0.02 %ID/g
  tissue uptake at 24 h: 0.08 ± 0.02 %ID/g
[1]; [9]
  tissue uptake at 0.25 h: 2.77 ± 0.44 %ID/g
  tissue uptake at 0.5 h: 1.46 ± 0.24 %ID/g
  tissue uptake at 1 h: 0.74 ± 0.12 %ID/g
  tissue uptake at 2 h: 0.61 ± 0.17 %ID/g
  tissue uptake at 4 h: 0.33 ± 0.09 %ID/g
  tissue uptake at 8 h: 0.16 ± 0.02 %ID/g
  tissue uptake at 24 h: 0.07 ± 0.01 %ID/g
[1]; [10]
  tissue uptake at 0.25 h: 1.31 ± 0.21 %ID/g
  tissue uptake at 0.5 h: 0.7 ± 0.18 %ID/g
  tissue uptake at 1 h: 0.37 ± 0.19 %ID/g
  tissue uptake at 2 h: 0.34 ± 0.2 %ID/g
  tissue uptake at 4 h: 0.14 ± 0.03 %ID/g
  tissue uptake at 8 h: 0.06 ± 0.02 %ID/g
  tissue uptake at 24 h: 0.02 ± 0.01 %ID/g
[1]; [11]
  tissue uptake at 0.25 h: 3.29 ± 1.07 %ID/g
  tissue uptake at 0.5 h: 2.14 ± 1.01 %ID/g
  tissue uptake at 1 h: 1.38 ± 0.42 %ID/g
  tissue uptake at 2 h: 1.49 ± 1.12 %ID/g
  tissue uptake at 4 h: 0.55 ± 0.3 %ID/g
  tissue uptake at 8 h: 0.42 ± 0.35 %ID/g
  tissue uptake at 24 h: 0.06 ± 0.04 %ID/g
[1]; [12]
  tissue uptake at 0.25 h: 1.75 ± 0.46 %ID/g
  tissue uptake at 0.5 h: 1.45 ± 0.24 %ID/g
  tissue uptake at 1 h: 1.21 ± 0.21 %ID/g
  tissue uptake at 2 h: 0.77 ± 0.17 %ID/g
  tissue uptake at 4 h: 0.43 ± 0.09 %ID/g
  tissue uptake at 8 h: 0.23 ± 0.09 %ID/g
  tissue uptake at 24 h: 0.08 ± 0.01 %ID/g
EMT-6 cells [2]; 50 μM, 90% cell kill, hypoxic
  sensitizer enhancement ratio (SER): about 1.8
EMT-6 cells [2]; in words
  sensitisation to lethal effects of ionising radiation: sensitise these cells to the lethal effects of ionising radiation
EMT-6 cells [2]; vs azomycin nucleoside class
  in vitro radiosensitizer efficiency, comparison: most efficient in vitro radiosensitizer of the azomycin nucleoside class produced to date
EMT-6 cells [3]
  binding with time: appears to increase linearly with time
EMT-6 cells [3]; 10 μM, various oxygen levels
  oxygen dependence of uptake/binding: greatest uptake of IAZG occurs under nitrogen incubation with a decrease in the binding rate as the oxygen concentration to which the cells are exposed is increased
EMT-6 cells [3]; hypoxic, vs IAZA or MISO
  initial binding rate, comparison: higher binding rate than IAZA or MISO
[4]
  stability on long term storage in solution: some decomposition of the pure compounds
